US6265423A, “Aromatic polycyclic retinoid-type derivatives, method for preparing same, and use thereof for making pharmaceutical and cosmetic compositions” (priority 1996, dated 2001)
“Also recorded” adds a separate entry of the source. Read-outs that look alike come from different tables or passages of the source.

Columns and labels:
[1] = system: ZR-75-1 human mammary cancer cells; assay: MTT test, proliferation of ZR-75-1; format: cell-based; conditions: for activity at 100 µM / activity at 1 µM / activity at 0.01 µM: Homo sapiens, read-out: level of proliferation; for effect on cellular increase, ZR-75-1 (in words): MTT test
How it was run: (§1)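 After 24 h seeding, cells in MEM with 5% decomplemented FCS at 37° C were exposed to compound at 10^-8 M, 10^-6 M and 10^-4 M. Viability was assessed by MTT reduction to formazan, dissolved in DMSO. Mean optical density is expressed as % of untreated control (100%), in 6 duplicates.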

[2] = system: RAR-ERcassettes (RARα, RARβ, RARγ); assay: Chimerical receptors RAR-ERcassettes, overall profile; format: cell-based
Source text: The HeLa cells are co-transfected by a plasmid which codes for a retinoic receptor in which the C domain of bonding to the DNA is substituted by that of the receptor to RE oestrogens, and a plasmid which places the expression of the luciferase under the control of an ERE (Element of Response to Oestrogens). The expressed chimerical receptors are designated as RARα-ERcassette, RARβ-ERcassette, RARγ-ERcassette and RXRα-ERcassette. The A, B, D, E and F regions of the natural receptor are preserved as well as the transcriptional co-operation between the activation domains AF-1 and AF-2. These transitory transfection experiments follow the method of co-precipitation to calcium phosphate. The HeLa cells are co-transfected by […] of plasmid coding for the chimerical receptor, […] of reporter plasmid and […] of expression vector CMV-β-galactosidase used as an internal control of transfection. 24 hours after the transfection, the cells are incubated for 16 hours with the different effectors.
In this type of chimerical receptor, the C domain of bonding to the DNA of RAR is substituted by that of the receptor to the RE oestrogens. The protein obtained is close to the natural RAR receptor and preserves the transcriptional properties of the AF-1 and AF-2 domains. It modulates the transcription by means of an ERE. This RAR-ERcassette model allows one to observe a transcriptional response to a more physiological ligand.

[3] = system: response element RARE of RARβ gene, endogenic retinoic receptors, HRLN lineage; assay: HRLN transactivation (RARE-luciferase, stably transfected HeLa); format: cell-based; conditions: for Emax / EC50: Homo sapiens, HeLa; for Emax: read-out: HRLN transactivation, E max; for EC50: concentrations from 1 nM to 1 μM
Procedure: MCF-7 cells and HeLa are cultivated in DMFM with phenol red to which 5% foetal calf serum is added. The T47-D cells are cultivated in RPMI to which 10% foetal calf serum is added. The experimental tests are carried out in DMEM without phenol red to which foetal calf serum treated with dextran carbon is added at 3%. […] The experiments using the different retinoids are carried out sheltered from the light so as to avoid any isomerisation.
Certain properties of the retinoids have been determined using more developed cellular models. These models consist of cellular lineages transfected in a stable fashion by recombinant plasmids which place the expression of the gene of the luciferase under the control of different nuclear response elements. […] The tests carried out in duplicate are described below for each of these models.
The cellular lineages HRLN and HRL+N allow one to study the activation of an RARE by endogenic receptors using ligands at physiological concentrations. These lineages derive from HeLa cells transfected in a stable fashion by a reporter gene which places the expression of the gene of the luciferase under the control of a nuclear response element RARE (RARE3 -tk-Luc). The HeLa cells express all the known receptors of the retinoic acid (RARα,β,γ and RXRα,β,γ) with a predominance of RARα and RXRα. The response element RARE used for the HRLN cells corresponds to the sequence of the natural gene of the RARβ receptor (GGTTCAnnnnnAGTTCA). The HRL+N cells comprise the sequence GAGTGAnnnnnCGGTGA.
This lineage comprises the response element RARE of the natural gene of the RARβ receptor which controls the expression of the gene of the luciferase.

[4] = system: T-47D human mammary cancer cells; assay: MTT test, proliferation of T-47D; format: cell-based; conditions: for activity at 100 µM / activity at 1 µM / activity at 0.01 µM: Homo sapiens, T47D, 72 h, read-out: level of proliferation; for effect on cellular increase, T-47D (in words): MTT test
How it was run: as §1

RAR and RXR receptors = assay: RAR/RXR activity profile drawn from the models; format: cell-based
Source text: The reference molecules have allowed one to show the effectiveness and the complementary nature of the different models used and lead to the following conclusions: chimerical constructions GAL-RAR and RAR-ERcassette allow the determination of the RAR agonist profile of molecules, but also an RXR agonist activity with RAR-ERcassette, the HRLN lineage mainly conveys the activity of a compound mediated by endogenic RARα, the HRL+N lineage also provides evidence of an RXR agonist activity of the retinoids, the anti-oestrogenic effect of the retinoids (oestrogen-induced cellular proliferation and MELN lineage) is mediated by RARα, the anti-AP-1 effect is mediated in the MCF-7 cells (MTLN lineage) by RARα, RARγ and RXRα, and an additive effect exists between the RAR and RXR routes.

[5] = system: ZR-75-1, T-47D, A549 and A-427 lineages; assay: MTT test, tumour cell lines overall; format: cell-based, human
Procedure: This test is based on the mitochondrial reduction by living metabolically active cells of the MTT (3-(4,5-dimethylthiazol-2-yl)-2,5-diphenyltetrazolium bromide) of yellowish colour into a blue coloured product, formazan. The quantity of formazan obtained is directly proportional to the number of living cells. After incubation of the cells for 24 hours in microplates with 96 flat bottomed wells, the culture medium is replaced by 100 μl of fresh culture medium containing the drug to be tested.
The microplates are then incubated for 3 hours at 37° C. and centrifuged for 10 minutes at 400 g (GPR centrifuge, Beckman). The MTT solution is replaced by 100 μl of dimethylsulphoxide (Merck). The microplates are agitated (Vari-Shaker, Dynatech) for 10 minutes.
In the microplates, the control cells like the treated cells were incubated in a medium without the compounds to be tested for 24 hours. The control cells are incubated in a medium without a drug throughout the whole experiment, while the treated cells are incubated in different media. These media contain the molecule to be tested at various concentrations: 10^-8 M, 10^-6 M and 10^-4 M. All the tests are carried out in 6 duplicates.

[6] = ZR-75-1, 10^-4 M, 72 h, control = 100%
[7] = ZR-75-1, 10^-6 M, 72 h, control = 100%
[8] = ZR-75-1, 10^-8 M, 72 h, control = 100%

SMILES | activity at 100 µM [1, 6] [%] | activity at 1 µM [1, 7] [%] | activity at 0.01 µM [1, 8] [%] | effect on cellular increase, ZR-75-1 (in words) [1] | RAR-ERcassette profile (in words) [2] | HRLN transactivation (in words) [3] | activity at 100 µM ([4]; T-47D, 10^-4 M, control = 100%) [%] | activity at 1 µM ([4]; T-47D, 10^-6 M, control = 100%) [%] | activity at 0.01 µM ([4]; T-47D, 10^-8 M, control = 100%) [%] | effect on cellular increase, T-47D (in words) [4] | RAR/RXR activity profile (in words) (RAR and RXR receptors) | Emax [3] [%] | EC50 [3] [nM] | activity at 0.01 µM ([1]; ZR-75-1, 72 h) [%] | activity at 1 µM ([1]; ZR-75-1, 72 h) [%] | activity at 100 µM ([1]; ZR-75-1, 72 h) [%] | activity at 0.01 µM [4] [%] | activity at 1 µM [4] [%] | activity at 100 µM [4] [%] | inhibition of the cellular lineages (in words) [5]
CC(C=C/C=C(C)\C=C\C1=C(C)CCCC1(C)C)=CC(=O)O [CB13407, 9-cis retinoic acid, reference compound] | 39.2 | 130 | 137 | stimulates the cellular increase at 10^-6 M and 10^-8 M | induce an over-expression of luciferase in comparison to the induction brought about by a synthetic compound (TTNPB) | induce a dose-dependent activation | 16.3 | 91.7 | 122 | stimulates the cellular increase at 10^-6 M and 10^-8 M |  |  |  |  |  |  |  |  |  | 
CC1=C(/C=C/C(C)=C/C=C/C(C)=C/C(=O)O)C(C)(C)CCC1 [CB16178, all-trans retinoic acid, reference compound] | 7.3 | 57.2 | 46.9 | inhibit the cellular increase of the two mammary lineages at the concentrations tested | induce an over-expression of luciferase in comparison to the induction brought about by a synthetic compound (TTNPB) | induce a dose-dependent activation | 1.8 | 52.6 | 77.2 | inhibit the cellular increase of the two mammary lineages at the concentrations tested |  |  |  |  |  |  |  |  |  | 
C/C(=C/c1ccc2c(c1)C(C)(C)CCC2(C)C)c1ccc(C(=O)O)nc1 [CB16279, (Z) 5-[1-(5,6,7,8-tetrahydro-5,5,8,8-tetramethyl-2-naphthalenyl)-2-propenyl]pyridinyl-2-carboxylic acid] |  |  |  |  | induce a transactivation mediated by the three receptors | induce a transactivation close to that of TTNPB |  |  |  |  | panagonistic |  |  |  |  |  |  |  |  | 
C/C(=C/c1ccc2c(c1)C(C)(C)CCC2(C)C)c1ccc(C(=O)O)cc1 [CB28628, reference compound] | 19.4 | 83.5 | 80.8 |  | complete agonist for RARγ-ERcassetteand induce an over-activation of RARα-ERcassette and RARβ-ERcassette at 1 μM |  | 4 | 59.3 | 93.2 |  |  | 98 |  |  |  |  |  |  |  | 
CC1(C)CCC(C)(C)c2cc(/C=C(\c3ccc(C(=O)O)cc3)C(F)(F)F)ccc21 [CB36493, (E) 4-[1-trifluoromethyl-2-(5,6,7,8-tetrahydro-5,5,8,8-tetramethyl-2-naphthalenyl)-1-ethenyl]benzoic acid] | 8.6 | 108 | 108 |  | induce a transactivation mediated by the three receptors | induce a transactivation close to that of TTNPB | 21.4 | 116 | 134 |  | panagonistic | 97 |  |  |  |  |  |  |  | 
C/C(=C/c1ccc2c(c1)C(C)(C)CCC2(C)C)c1ccc(C(=O)O)cn1 [CB38416, (Z) 2-[1-(5,6,7,8-tetrahydro-5,5,8,8-tetramethyl-2-naphthalenyl)-2-propenyl]pyridinyl-5-carboxylic acid] | 55.8 | 98.3 | 122 |  | induce a transactivation mediated by the three receptors | induce a transactivation close to that of TTNPB | 42.5 | 82.6 | 119 |  | panagonistic | 81 |  |  |  |  |  |  |  | 
C/C(=C\c1cc2c(cc1C)C(C)(C)CCC2(C)C)c1ccc(C(=O)O)cc1 [CB71802] | 7.8 | 96 | 101 |  |  |  | 14.3 | 113 | 132 |  |  | 76 | 31.4 ± 16.9 |  |  |  |  |  |  | 
C/C(=C\c1ccc2c(c1)C(C)(C)CCC2(C)C)c1ccc(C(=O)Nc2nnn[nH]2)cc1 [CB73364] | 0 | 101 | 119 |  |  |  | 0 | 53 | 62 | inhibits the increase of the T-47D cells |  | 89 | 33 |  |  |  |  |  |  | 
CC1(C)CCC(C)(C)c2cc(/C=C(\c3ccc(-c4nnn[nH]4)cc3)C(F)(F)F)ccc21 [CB77402, (E) 5-[4-[1-trifluoromethyl-2-(5,6,7,8-tetrahydro-5,5,8,8-tetramethyl-2-naphthalenyl)-1-ethenyl]phenyl]-1H-tetrazole] | 7.5 | 96.6 | 99.9 |  | do not permit transactivation mediated by RARα-ERcassette and RARγ-cassette. However, a partial transactivation of RARβ-ERcassette is observed; also recorded: with a specific RAR agonist permits an over-activation of the effect of the RAR molecule alone for the three RAR-ERcassette receptors | very feebly active | 15.4 | 118 | 128 |  | RXR specific activity | 18 |  |  |  |  |  |  |  | 
Cc1cc2c(cc1C(=O)c1ccc(C(=O)O)cc1)C(C)(C)CCC2(C)C [LGD-CB14499, reference compound] |  |  |  |  | transcriptional power appears higher notably through the RARβ-ERcassette |  |  |  |  |  |  |  |  | 107 | 104 | 42.4 | 88.2 | 82.7 | 1.3 | 
C/C(=C\c1ccc(C(=O)O)cc1)c1ccc2c(c1)C(C)(C)CCC2(C)C [TTNPB, reference compound] | 15.7 | 69.8 | 60.6 | inhibit the cellular increase of the two mammary lineages at the concentrations tested |  |  | 3.5 | 61.7 | 58.5 | inhibit the cellular increase of the two mammary lineages at the concentrations tested |  |  |  |  |  |  |  |  |  | induces the strongest inhibition of the cellular lineages
